For 19 compounds, IC50 results are on record in patent publication US7476764B2, “Phenylcarboxyamides as beta-secretase inhibitors” (Bristol-Myers Squibb Company, priority 2005, dated 2009).

Where a name gives a salt, the structure may show the parent alone.

In one experiment the target is T1, BACE1 enzyme (Homo sapiens, UniProt P56817).
T1 construct: The HEK293-9B.A1 cell line, which overexpresses the BACE1 enzyme, was derived from HEK293 cells; endogenous in cells; washed 48,000 x g pellet of the cell homogenate
T1 sequence (P56817 46-501): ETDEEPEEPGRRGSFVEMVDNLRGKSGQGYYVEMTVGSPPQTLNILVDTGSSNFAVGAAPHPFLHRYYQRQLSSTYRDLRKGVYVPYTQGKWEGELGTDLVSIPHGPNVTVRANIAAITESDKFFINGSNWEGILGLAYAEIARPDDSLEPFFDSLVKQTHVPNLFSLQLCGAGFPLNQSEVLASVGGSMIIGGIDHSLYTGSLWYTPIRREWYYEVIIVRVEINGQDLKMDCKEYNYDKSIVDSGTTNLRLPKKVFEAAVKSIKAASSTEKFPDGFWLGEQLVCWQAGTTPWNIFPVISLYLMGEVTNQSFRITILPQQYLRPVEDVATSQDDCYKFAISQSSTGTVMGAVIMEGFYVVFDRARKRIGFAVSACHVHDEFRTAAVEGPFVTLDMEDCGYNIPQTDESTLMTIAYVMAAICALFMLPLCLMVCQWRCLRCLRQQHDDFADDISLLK
Briefly: Radioligand displacement assay with a radiolabeled BACE inhibitor on HEK293-9B.A1 cell homogenate. The experiment is classed as binding.
Settings: not given
The protocol:
Radioligand displacement assays with a radiolabeled BACE inhibitor (WO 2004 013098, compound 3, where the methoxy group is substituted for C(^3H)3) were carried out using standard methods (Keen, M. (1999) in Receptor Binding Techniques (Walker, J. M. ed) p. 106 Humana Press, Totowa, N.J.). The HEK293-9B.A1 cell line, which overexpresses the BACE1 enzyme, was derived from HEK293 cells (Simmons, N. L. (1990) A cultured human renal epitheloid cell line responsive to vasoactive intestinal peptide. Exp. Physiol. 75:309-19.) by RAGE™ (Harrington, J. J. et al. (2001) Creation of genome-wide protein expression libraries using random activation of gene expression. Nat. Biotechnol. 19:440-5; U.S. Pat. Nos. 6,410,266 and 6,361,972). T225 flask cultures of HEK293-9B.A1 were grown to 80% confluency in DMEM supplemented with 2 mM L-glutamine, 10 μg/ml penicillin, 10 μg/ml streptomycin, 3 μg/ml puromycin, 100 nM methotrexate, and 10% fetal bovine serum (Invitrogen, Carlsbad, Calif.), harvested, and resuspended at 2×10^8 cells per 10 ml of lysis buffer consisting of 50 mM HEPES pH 7.0 containing a protease inhibitor cocktail of AEBSF 104 μM, aprotinin 80 nM, leupeptin 2 μM, bestatin 4 μM, pepstatin A 1.5 μM, and E-64 1.4 μM (0.1% of protease inhibitor cocktail P8340, Sigma-Aldrich, St. Louis, Mo.) at 4° C. The resuspended cells were homogenized using a Polytron (Brinkman, Westbury, N.Y.) at setting 6 for 10 sec., then centrifuged at 48,000×g for 10 min. The resulting pellet was washed by repeating the resuspension, homogenization and centrifugation steps. The final pellet was resuspended in buffer at 4° C. to yield a total protein concentration of 5 mg/ml, then aliquots were frozen in liquid nitrogen for further storage at −70° C. Immediately before carrying out a binding assay, an aliquot of cell homogenate was thawed and diluted to a concentration of 100 μg/ml in assay buffer consisting of 50 mM HEPES pH 5.0 and 0.1% CHAPSO. Assays were initiated in polypropylene 96-well plates (Costar, Cambridge, Mass.) by the addition of 200 μl of cell homogenate to 50 μl of assay buffer containing 1 nM radioligand (WO 2004 013098, compound 3, where the methoxy group is substituted for C(^3H)3: 80 Ci/mMol) and various concentrations of unlabelled compounds, and incubated for 1.5 hr. at 25° C. Separation of bound from free radioligand was by filtration on GFF glass fiber filters (Innotech Biosystems International, Lansing, Mich.) using an Innotech cell harvester.
Take `COc1cccc(CNC[C@@H](O)[C@H](Cc2cc(F)cc(F)c2)NC(=O)c2cc(C(=O)N[C@H](C)c3ccccc3)cc(C(C)O)c2)c1` (stereo partly drawn) [Example 45, N^1-((2S,3R)-4-(3-methoxybenzylamino)-1-(3,5-difluorophenyl)-3-hydroxybutan-2-yl)-5-(1-hydroxyethyl)-N^3-((R)-1-phenylethyl)isophthalamide TFA salt]: the IC50 – broadly, the concentration that gives 50% inhibition – is < 0.1 µM.

Staying with this experiment, now noted: displacement of 1 nM tritiated radioligand, HEK293-9B.A1 homogenate, pH 5.0, 1.5 hr at 25° C.; read-out: Activity Rating (activity based on IC50 values).
`COc1cccc(CNC[C@@H](O)[C@H](Cc2cc(F)cc(F)c2)NC(=O)c2cc(/C(C)=N/OCC(C)C)cc(N(C)S(C)(=O)=O)c2)c1` [Example 33, N-((2S,3R)-4-(3-methoxybenzylamino)-1-(3,5-difluorophenyl)-3-hydroxybutan-2-yl)-3-((E)-1-(isobutoxyimino)ethyl)-5-(N-methylmethan-2-ylsulfonamido)benzamide TFA salt]: the half-inhibitory concentration (IC50) fell in the range of 0.1 to 1 µM. Still for that read-out and setting: the value for `CCCO/N=C(\C)c1cc(C(=O)N[C@@H](Cc2cc(F)cc(F)c2)[C@H](O)CNCc2cccc(OC)c2)cc(N2CCCCS2(=O)=O)c1` [Example 26, N-[(1S,2R)-1-(3,5-difluoro-benzyl)-2-hydroxy-3-(3-methoxy-benzylamino)-propyl]-3-(1,1-dioxo-1λ^6-[1,2]thiazinan-2-yl)-5-{1-[(E)-propoxyimino]-ethyl}-benzamide TFA salt] was < 0.1 µM; that for `CCCN(CCC)C(=O)c1cc(C(C)=O)cc(C(=O)N[C@@H](Cc2cc(F)cc(F)c2)[C@H](O)CNCc2cccc(OC)c2)c1` [Example 1, N^1-((2S,3R)-4-(3-methoxybenzylamino)-1-(3,5-difluorophenyl)-3-hydroxybutan-2-yl)-5-acetyl-N^3,N^3-dipropylisophthalamide TFA salt] was < 0.1 µM; that for `CCCN(CCC)C(=O)c1cc(C(=O)N[C@@H](Cc2cc(F)cc(F)c2)[C@H](O)CNCc2cccc(OC)c2)cc(/C(C)=N/OC)c1` [Example 3, N^1-((2S,3R)-4-(3-methoxybenzylamino)-1-(3,5-difluorophenyl)-3-hydroxybutan-2-yl)-5-((E)-1-(methoxyimino)ethyl)-N^3,N^3-dipropylisophthalamide TFA salt] was < 0.1 µM. The same measure, in the same setting: the value for `CCCO/N=C(\C)c1cc(C(=O)N[C@@H](Cc2cc(F)cc(F)c2)[C@H](O)CNCc2cccc(OC)c2)cc(S(C)(=O)=O)c1` [Example 19, N-((2S,3R)-4-(3-methoxybenzylamino)-1-(3,5-difluorophenyl)-3-hydroxybutan-2-yl)-3-(methylsulfonyl)-5-((E)-1-(propoxyimino)ethyl)benzamide TFA salt] was 0.1 to 1 µM; that for `CO/N=C(\C)c1cc(C(=O)N[C@@H](Cc2cc(F)cc(F)c2)[C@H](O)CNCc2cccc(OC)c2)cc(N2CCCCS2(=O)=O)c1` [Example 24, N-[(1S,2R)-1-(3,5-difluoro-benzyl)-2-hydroxy-3-(3-methoxy-benzylamino)-propyl]-3-(1,1-dioxo-1λ^6-[1,2]thiazinan-2-yl)-5-{1-[(E)-methoxyimino]-ethyl}-benzamide TFA salt] was < 0.1 µM; that for `COc1cccc(CNC[C@@H](O)[C@H](Cc2cc(F)cc(F)c2)NC(=O)c2cc(/C(C)=N/OCc3ccccc3)cc(S(C)(=O)=O)c2)c1` [Example 18, N-((2S,3R)-4-(3-methoxybenzylamino)-1-(3,5-difluorophenyl)-3-hydroxybutan-2-yl)-3-((E)-1-(benzyloxyimino)ethyl)-5-(methylsulfonyl)benzamide TFA salt] was 0.1 to 1 µM. On the same count and under the same terms, the value for `COc1cccc(CNC[C@@H](O)[C@H](Cc2cc(F)cc(F)c2)NC(=O)c2cc(/C(C)=N/OCC(C)C)cc(N3CCCCS3(=O)=O)c2)c1` [Example 27, N-[(1S,2R)-1-(3,5-difluoro-benzyl)-2-hydroxy-3-(3-methoxy-benzylamino)-propyl]-3-(1,1-dioxo-1λ^6-[1,2]thiazinan-2-yl)-5-{1-[(E)-isobutoxyimino]-ethyl}-benzamide TFA salt] was 0.1 to 1 µM; that for `COc1cccc(CNC[C@@H](O)[C@H](Cc2cc(F)cc(F)c2)NC(=O)c2cc(C(C)O)cc(N(C)S(C)(=O)=O)c2)c1` (stereo partly drawn) [Example 35, N-((2S,3R)-4-(3-methoxybenzylamino)-1-(3,5-difluorophenyl)-3-hydroxybutan-2-yl)-3-(1-hydroxyethyl)-5-(N-methylmethan-2-ylsulfonamido)benzamide TFA salt] was < 0.1 µM; that for `COc1cccc(CNC[C@@H](O)[C@H](Cc2cc(F)cc(F)c2)NC(=O)c2cc(/C(C)=N/OCc3ccccc3)cc(N(c3ccccc3)S(C)(=O)=O)c2)c1` [Example 39, N-((2S,3R)-4-(3-methoxybenzylamino)-1-(3,5-difluorophenyl)-3-hydroxybutan-2-yl)-3-((E)-1-(benzyloxyimino)ethyl)-5-(N-phenylmethan-10-ylsulfonamido)benzamide] was < 0.1 µM. As for `CCCO/N=C(\C)c1cc(C(=O)N[C@@H](Cc2cc(F)cc(F)c2)[C@H](O)CNCc2cccc(OC)c2)cc(N(C)S(C)(=O)=O)c1` [Example 32, N-((2S,3R)-4-(3-methoxybenzylamino)-1-(3,5-difluorophenyl)-3-hydroxybutan-2-yl)-3-((E)-1-(propoxyimino)ethyl)-5-(N-methylmethan-2-ylsulfonamido)benzamide TFA salt], the IC50 lay within 0.1 to 1 µM. Same read-out and setting: with `CCCN(C)C(=O)c1cc(C(=O)N[C@@H](Cc2cc(F)cc(F)c2)[C@H](O)CNCc2cccc(OC)c2)cc(C(C)O)c1` (stereo partly shown) [Example 15, hydrochloride] the figure was < 0.1 µM; with `COc1cccc(CNC[C@@H](O)[C@H](Cc2cc(F)cc(F)c2)NC(=O)c2cc(C(C)=O)cc(C(=O)N[C@H](C)c3ccccc3)c2)c1` [Example 44, N^1-((2S,3R)-4-(3-methoxybenzylamino)-1-(3,5-difluorophenyl)-3-hydroxybutan-2-yl)-5-acetyl-N^3-((R)-1-phenylethyl)isophthalamide TFA salt], < 0.1 µM; with `COc1cccc(CNC[C@@H](O)[C@H](Cc2cc(F)cc(F)c2)NC(=O)c2cc(C(C)=O)cc(C(=O)NC(C)c3ccc(F)cc3)c2)c1` (stereo partly drawn) [Example 47, N^1-((2S,3R)-4-(3-methoxybenzylamino)-1-(3,5-difluorophenyl)-3-hydroxybutan-2-yl)-5-acetyl-N^3-(1-(4-fluorophenyl)ethyl)isophthalamide TFA salt], < 0.1 µM. Regarding `C=CCO/N=C(/C)c1cc(C(=O)NC(C)c2ccc(F)cc2)cc(C(=O)N[C@@H](Cc2cc(F)cc(F)c2)[C@H](O)CNCc2cccc(OC)c2)c1` (stereo partly drawn) [Example 49, N^1-((2S,3R)-4-(3-methoxybenzylamino)-1-(3,5-difluorophenyl)-3-hydroxybutan-2-yl)-5-((Z)-1-(allyloxyimino)ethyl)-N^3-(1-(4-fluorophenyl)ethyl)isophthalamide TFA salt], the IC50 was in the range of 0.1 to 1 µM. Still for that read-out and setting: with `CO/N=C(/C)c1cc(C(=O)NC(C)c2ccc(F)cc2)cc(C(=O)N[C@@H](Cc2cc(F)cc(F)c2)[C@H](O)CNCc2cccc(OC)c2)c1` (stereo partly drawn) [Example 50, N^1-((2S,3R)-4-(3-methoxybenzylamino)-1-(3,5-difluorophenyl)-3-hydroxybutan-2-yl)-N^3-(1-(4-fluorophenyl)ethyl)-5-((Z)-1-(methoxyimino)ethyl)isophthalamide TFA salt] the figure was < 0.1 µM; with `COc1cccc(CNC[C@@H](O)[C@H](Cc2cc(F)cc(F)c2)NC(=O)c2cc(C(C)=O)cc(N3CCCCS3(=O)=O)c2)c1` [Example 22, N-[(1S,2R)-1-(3,5-difluoro-benzyl)-2-hydroxy-3-(3-methoxy-benzylamino)-propyl]-3-(1,1-dioxo-1λ^6-[1,2]thiazinan-2-yl)-5-acetyl-benzamide TFA salt], < 0.1 µM. On the same count and under the same terms, with `C=CCO/N=C(\C)c1cc(C(=O)N[C@@H](Cc2cc(F)cc(F)c2)[C@H](O)CNCc2cccc(OC)c2)cc(S(C)(=O)=O)c1` [Example 21, N-((2S,3R)-4-(3-methoxybenzylamino)-1-(3,5-difluorophenyl)-3-hydroxybutan-2-yl)-3-((E)-1-(allyloxyimino)ethyl)-5-(methylsulfonyl)benzamide TFA salt] the figure was 0.1 to 1 µM.
